Key:
Vaccinia = details: read-out: EC50 Vaccinia; in vitro; ref Beadle et al. (ref. [13]); cited from earlier work
Cowpox = details: read-out: EC50 Cowpox; cited from earlier work
HCMV = details: read-out: EC50 HCMV; in vitro; ref Beadle et al. (ref. [13]); cited from earlier work
[1] = system: genotype 1b and 2a HCV replicons; experiment: HCV replicon assays, genotype 1b and 2a stated together; type: cell-based, hepatitis C virus; details: for EC50: Hepatitis C virus, GETYPE1B, read-out: EC50 in genotype 1b and 2a HCV replicons
[2] = system: genotype 1b HCV replicon (BM4-5); experiment: HCV replicon assay, BM4-5; type: cell-based, hepatitis C virus; details: CC50/EC50, genotype 1b
[3] = system: genotype 2a HCV replicon (JFH-1); experiment: HCV replicon assay, JFH-1; type: cell-based, hepatitis C virus; details: CC50/EC50, genotype 2a
HIV-1LAI [4] = experiment: HIV-1 inhibition assay in MT-2 cells; type: cell-based; details: HIV-1 in MT-2 cells
HIV-1LAI [5] = details: HIV-1 infected MT-2 cells, previous studies; cited from earlier work

CCCCCCCCCCCCCCCCCCOCCOP(=O)(O)CO[C@H](CO)Cn1cnc2c(N)ncnc21 [Compound 1, octadecyloxyethyl 9-(S)-[3-hydroxy-2-(phosphonomethoxy)propyl]adenine]
EC50 (Vaccinia): 20 ± 10 nM | EC50 (Cowpox): 50 ± 40 nM | EC50 (HCMV): 3 ± 1 nM

CCCCCCCCCCCCCCCCCCOCCOP(=O)(O)CO[C@H](COC)Cn1cnc2c(N)ncnc21 [Compound 15, Octadecyloxyethyl (S)-9-[(3-methoxy-2-phosphonomethoxy)propyl]adenine]
EC50 [1]: 1000 to 2000 nM

CCCCCCCCCCCCCCCCCCOCCOP(=O)([O-])CO[C@H](COC)Cn1cnc2c(=O)[nH]c(N)nc21.[Na+] [Compound 34, Octadecyloxyethyl (S)-9-[(3-methoxy-2-phosphonomethoxy)propyl]guanine]
Selectivity Index BM4-5 (1b) [2]: >18.2 | Selectivity Index JFH-1 (2a) [3]: >14.0

CCCCCCCCCCCCCCCCCCOCCOP(=O)([O-])CO[C@@H](COC)Cn1cnc2c(=O)[nH]c(N)nc21.[Na+] [Compound 35, Octadecyloxyethyl (R)-9-[(3-methoxy-2-phosphonomethoxy)propyl]guanine]
Selectivity Index BM4-5 (1b) [2]: >11.9 | Selectivity Index JFH-1 (2a) [3]: >12.1 | Selectivity Index (HIV-1LAI [4]): >4.4×10^6

CCCCCCCCCCCCCCCCCCOCCOP(=O)([O-])CO[C@H](COC)Cn1ccc(N)nc1=O.[Na+] [Compound 40, Octadecyloxyethyl (S)-1-[(3-methoxy-2-phosphonomethoxy)propyl]cytosine]
anti-HCV activity (in words) ([1]; genotype 1b and 2a replicons): inactive

CCCCCCCCCCCCCCCCOCCCOP(=O)(O)CO[C@H](COC)Cn1cnc2c(OC)ncnc21 [Compound 43, Hexadecyloxypropyl (S)-9-[(3-methoxy-2-phosphonomethoxy)propyl]-6-methoxypurine]
EC50 [1]: 8900 to 12500 nM

CCCCCCCCCCCCCCCCOCCCOP(=O)(O)CO[C@H](COC)Cn1cnc2c(OC)nc(N)nc21 [Compound 44, Hexadecyloxypropyl (S)-9-[(3-methoxy-2-phosphonomethoxy)propyl]-6-O-methylguanine]
EC50 [1]: 18000 to 26000 nM

Nc1ncnc2c1ncn2CCOCP(=O)(O)O [adefovir]
EC50 (HIV-1LAI [5]): 1100 nM

C[C@H](Cn1cnc2c(N)ncnc21)OCP(=O)(O)O [tenofovir]
EC50 (HIV-1LAI [5]): 650 nM
